We go through one molecule from article PMC9652379, “Safety evaluations of a synthetic antimicrobial peptide administered intravenously in rats and dogs” (Scientific Reports, 2022).

One series concerns Sprague Dawley rats. As to the kind of experiment: Dose range finding in rats: clinical signs, body weight, survival. The series is classed as in vivo, rat. Here is the method: The purpose of this study was to determine the DRF of SET-M33 peptide when administered by intravenous bolus to Sprague Dawley rats. In order to identify a starting point for DRF, in Phase I of this study the peptide was administered once daily for 3 days at a constant dose of 20 mg/kg/day to six animals (three males and three females). […] No clinical signs were recorded in any animal 20–60 min after administration. Body weight of all animals in Phase I remained constant or decreased slightly during treatment.
Phase II, where 10 animals/group (five males and five females) were used, included a control group and two dose groups (10 mg/kg/day and 20 mg/kg/day), that were injected once daily for seven days. […] At 20 mg/kg/day, additional clinical signs, including decreased activity, irregular and/or slow breathing, piloerection, partially closed eyelids, abnormal uncoordinated gait, reduced body tone and hunched posture, were observed during the 7 days. The mean body weight of males treated with 10 and 20 mg/kg/day declined slightly (6% and 5% less than control group, respectively).
Sprague Dawley rats were used for the toxicity studies. The animals were supplied by Envigo RMS S.L. All animals were 6–8 weeks old at the start of treatment and were allocated randomly to the treatment groups. […]
A viability/mortality check was recorded at least twice daily. […]

Series [1] in a line: Dose range finding in rats: toxicokinetics. The series is classed as in vivo, rat. The settings on record: for quantifiable plasma concentrations until, post-dose: rat, in vivo; for mean AUCt ratio, low vs. high dose (theoretical ratio 2) / mean Cmax ratio, low vs. high dose (theoretical ratio 2): rats, 10 vs 20 mg/kg/day iv bolus. How it is done: SET-M33 concentration was determined after administration by intravenous bolus for 7 days at 10 mg/kg/day and 20 mg/kg/day. Exposure parameters (AUCt and Cmax) were compared in order to evaluate dose-dependency, accumulation ratio and sex-related differences. […] Mean plasma levels of SET-M33 increased in parallel with dose in males and females. Mean time to maximum concentrations (tmax) were observed immediately after administration, 5 min post-dose for both periods (days 1 and 7) and sexes, coherently with intravenous bolus administration.
Blood samples were collected from the retro-orbital plexus of animals under light isoflurane anaesthesia. Blood samples were taken from three males and three females at each extraction time. Sampling times were as follows: Day 1: 5, 15, 30 and 60 min after administration. Day 7: pre-dose and 5, 15, 30, 60 min and 24 h after administration. Control animals were bled only once on days 1 and 7 of treatment at 30 min after treatment. Each blood sample was collected into a polypropylene test tube containing lithium heparin as anticoagulant and kept in an ice bath until centrifuging (1600 g for 10 min at 2–8 °C). The plasma from each sample was transferred to a fresh polypropylene test tube, immediately frozen in dry ice and stored at − 20 °C ± 5.

The test system of the next series is male rats. Put plainly: Neurological toxicity in rats (Irwin test, body temperature, locomotor activity, body weight). The series is classed as in vivo. How it is done:
The purpose of this study was to evaluate the neurological side-effects of SET-M33 following a single intravenous injection of 5, 9 and 15 mg/kg and vehicle (6 animals/group). The study was based on subjective observation of central nervous system effects on general behaviour (Irwin test), combined with objective evaluation of body temperature and locomotor activity in male rats[32],[33]. Effects on body weight were also assessed. Again the dose levels were selected on the basis of the DRF study reported above.
Evaluation of SET-M33 neurological toxicity was based on the method described by Irwin[32],[33]. On the day prior to dosing, detailed subjective observation of all animals was made to assess the neurobehavioral and physiological state of untreated rats. After subjective observation, rectal temperature was measured and spontaneous locomotor activity was assessed. On the day of dosing, the animals were treated and then returned to their home cages. […] During these observations, the following parameters were systematically evaluated for each animal using a standard procedure: lethality, restlessness, apathy, writhing, fighting, stereotyped behaviour, tremor, twitches, convulsions, exophthalmos, abnormal respiration, alertness, startle response, loss of righting reflex, abnormal body carriage, abnormal gait, Straub tail, piloerection, pupil diameter, light-pupil response, touch response, fearfulness, pinna reflex, corneal reflex, catalepsy, passivity, aggressiveness, body tone, grip strength, cutaneous blood flow, cyanosis, ptosis, lacrimation, salivation, pain response, motility impairment, grooming, diarrhoea, vocalization, increased urination. Normal attributes of animals (e.g. alertness, body tone etc.) were subjectively scored as 4; enhancement or depression of these attributes by SET-M33 was scored with higher or lower integers, respectively. Attributes normally absent in animals (e.g. abnormal gait, abnormal respiration, tremors etc.) were subjectively scored from 0 (normal) to 8. […] Finally, spontaneous locomotor activity was analysed. […]

The subject of a further series is P. aeruginosa. The settings on record: cited from earlier work.
The next series concerns mouse. The note with it: cited from earlier work.

By MIC50 is commonly meant an inhibitory concentration at the 50% level, which refers to growth in some studies and to a panel of isolates in others. Usually MIC90 stands for the lowest concentration that inhibits either 90% of growth or 90% of the strains tested, depending on the study.

Molecules are shown by their SMILES. ≈ marks a conversion by molar mass, not a printed value. Positions of bridges follow the written chain, without caps; N, C: chain ends. Non-standard residues stand in square brackets, D forms with d. Residues, ends and D or L forms follow the SMILES beside them. Chains are numbered I, II in the order given. βAla = NCCC(=O)O

Turning to `CC[C@H](C)[C@H](NC(=O)[C@H](CCCCN)NC(=O)[C@@H](N)CCCCN)C(=O)N[C@@H](CCCNC(=N)N)C(=O)N[C@H](C(=O)N[C@@H](CCCNC(=N)N)C(=O)N[C@@H](CC(C)C)C(=O)N[C@@H](CO)C(=O)N[C@@H](C)C(=O)NCCCC[C@H](NC(=O)[C@H](C)NC(=O)[C@H](CO)NC(=O)[C@H](CC(C)C)NC(=O)[C@H](CCCNC(=N)N)NC(=O)[C@@H](NC(=O)[C@H](CCCNC(=N)N)NC(=O)[C@@H](NC(=O)[C@H](CCCCN)NC(=O)[C@@H](N)CCCCN)[C@@H](C)CC)C(C)C)C(=O)NCCCC[C@H](NC(=O)[C@H](CCCCNC(=O)[C@H](C)NC(=O)[C@H](CO)NC(=O)[C@H](CC(C)C)NC(=O)[C@H](CCCNC(=N)N)NC(=O)[C@@H](NC(=O)[C@H](CCCNC(=N)N)NC(=O)[C@@H](NC(=O)[C@H](CCCCN)NC(=O)[C@@H](N)CCCCN)[C@@H](C)CC)C(C)C)NC(=O)[C@H](C)NC(=O)[C@H](CO)NC(=O)[C@H](CC(C)C)NC(=O)[C@H](CCCNC(=N)N)NC(=O)[C@@H](NC(=O)[C@H](CCCNC(=N)N)NC(=O)[C@@H](NC(=O)[C@H](CCCCN)NC(=O)[C@@H](N)CCCCN)[C@@H](C)CC)C(C)C)C(=O)NCCC(=O)O)C(C)C` [SET-M33] (I: H-KKIRVRLSAKK[βAla]-OH / II: H-KKIRVRLSAK / III: H-KKIRVRLSA / IV: H-KKIRVRLSA; amide I:10-IV:C, I:11-II:C, II:10-III:C (inferred); N-terminus and C-terminus assumed), the female body weight result in the series with Sprague Dawley rats (female rats, 10 and 20 mg/kg/day iv, 7 days (Phase II)) is reported as “unaffected by treatment”. The survival entry in the series with Sprague Dawley rats (rats, Phase I 20 mg/kg/day 3 days and Phase II 10 and 20 mg/kg/day 7 days, iv bolus) is reported as “All animals survived both phases”. Also, the “quantifiable plasma concentrations until, post-dose” value in series [1] was 1 h; in series [1] (iv, 10 mg/kg/day), 0.5 to 1 h; in series [1] (iv, 20 mg/kg/day), “up to 24 h”. The “mean AUCt ratio, low vs. high dose (theoretical ratio 2)” value was 2.2 in series [1] (day 1) and 9.8–14.0 in series [1] (day 7). For the same molecule, the “mean Cmax ratio, low vs. high dose (theoretical ratio 2)” value is given as 2.4 to 2.7 in series [1] (day 1) and 2.8–7.2 in series [1] (day 7). Further, the “adverse clinical signs (Irwin test)” value in the series with male rats (male rats, 5, 9 and 15 mg/kg single iv, 5, 30, 90, 240 min and 24 h post-dose) is given as “did not cause any adverse clinical signs”. Further, the “delayed toxicity and mortality” value with male rats (male rats, 5, 9 and 15 mg/kg single iv, up to day 7) is “No delayed effects of toxicity and no mortality”. For the same molecule, the “group mean body temperature lower than vehicle-treated control group” value in the series with male rats (male rats, 9 and 15 mg/kg single iv, 5 min post-dose) was 0.4–0.6 °C. Moreover, in the series with P. aeruginosa, the MIC50 was 1.4 µM (≈ 6.56 µg/mL). Further, the MIC90 in the series on P. aeruginosa is 1.4 µM (≈ 6.56 µg/mL). In addition, the efficacy dose in the series with mouse was 5 mg/kg.
